Data taken from patent publication US20100009956A1, “NOVEL SUBSTITUTED PYRIMIDINES AS CYSTEINE PROTEASE INHIBITORS” (Glaxo Group Limited , a corporation, priority 2006, published 2010).
Counter-ions that a name gives are not always drawn.

Key:
[1] = target: Cathepsin S (Homo sapiens, UniProt P25774); experiment: Cathepsin S enzymatic assay (assay 1); format: biochemical; details: human recombinant enzyme, KQKLR-AMC substrate, pH 6.5
Outline: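 Human recombinant cathepsin S activity was measured with the fluorogenic substrate KQKLR-AMC at 30 uM in 50 mM MES, pH 6.5, containing 0.5 mM CHAPS, 10 mM L-CYS and 5 mM EDTA with 1% DMSO. Enzyme and substrate were added to inhibitor wells, run at ambient temperature, quenched after 90 minutes with E-64, and AMC fluorescence (360/460 […]) was fit to give IC50.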

[2] = tested on: Plasmodium falciparum parasite; experiment: Whole cell assay (assay 2); format: cell-based
From the text: Assay 2) Determination of Whole Cell Activity Against the Plasmodium falciparum Parasite
Compounds can be evaluated for whole cell actvity against the Plasmodium falciparum parasite according to the procedure described in Sijwali S. and Rosenthal P. J., (2004) Proceedings of the National Academy of Sciences of the United States of America (PNAS) 101 (13), 4384-4389 (see in particular “Measurement of Parasite Growth rates and Inhibitor Sensitivity” on page 4385); IC50 values can be calculated as described in Singh A. and Rosenthal P. J., (2001) Antimicrobial Agents and Chemotherapy 45(3), 949-951 (see in particular page 950, first column); synchronised parasites can be prepared as described in Divo A. A. et al., (1985) Protozool. 32, 59-64.

[3] = target: T1, Cathepsin K (Homo sapiens, UniProt P43235); experiment: Cathepsin K enzymatic assay (assay 1); format: biochemical; details: human recombinant enzyme, Z-FR-AFC substrate, pH 5.5
T1 sequence (P43235 115-329): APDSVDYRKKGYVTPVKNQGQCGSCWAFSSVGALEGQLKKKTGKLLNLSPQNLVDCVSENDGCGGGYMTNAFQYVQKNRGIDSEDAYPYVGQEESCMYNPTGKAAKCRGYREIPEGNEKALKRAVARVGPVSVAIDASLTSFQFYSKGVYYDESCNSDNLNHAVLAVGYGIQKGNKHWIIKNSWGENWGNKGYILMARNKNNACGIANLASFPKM
Outline: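 Human recombinant cathepsin K was assayed with the fluorogenic substrate Z-FR-AFC at 20 uM in 100 mM sodium acetate, pH 5.5, with 5 mM L-cysteine, 1 mM CHAPS, 5 mM EDTA and 1% DMSO. Enzyme plus substrate was added to wells holding inhibitor in DMSO. After 60 minutes at ambient temperature, 16.6 uM E-64 quenched the reaction. AFC fluorescence (excitation 405 nm, emission 530 nm) was read, and IC50 came from a four-parameter dose-response fit.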

[4] = target: Falcipain-2 (Plasmodium falciparum, UniProt Q8I6U4); experiment: Falcipain-2 enzymatic assay (assay 1); format: biochemical
Chain of Falcipain-2 (Q8I6U4 244-484): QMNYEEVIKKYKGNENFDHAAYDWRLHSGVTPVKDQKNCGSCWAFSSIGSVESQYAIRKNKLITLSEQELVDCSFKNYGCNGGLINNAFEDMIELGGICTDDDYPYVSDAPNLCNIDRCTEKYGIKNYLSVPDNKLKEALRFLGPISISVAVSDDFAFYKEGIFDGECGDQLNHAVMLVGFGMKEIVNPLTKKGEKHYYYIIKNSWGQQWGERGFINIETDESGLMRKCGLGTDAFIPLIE
Outline: (§1)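 Recombinant parasite enzyme with 30 uM H-D-VLR-AFC in 100 mM sodium acetate pH 5.5, 10 mM DTT, 0.5 mM CHAPS, 1% DMSO, ambient temperature. Endpoint after 60 minutes, quenched with 16.6 uM E-64; AFC fluorescence (ex 405/em 530). IC50 from four-parameter fit, apparent KI assuming competitive inhibition.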

[5] = target: Falcipain-3 (Plasmodium falciparum, UniProt Q8IIL0); experiment: Falcipain-3 enzymatic assay (assay 1); format: biochemical
Chain of Falcipain-3 (Q8IIL0 243-492): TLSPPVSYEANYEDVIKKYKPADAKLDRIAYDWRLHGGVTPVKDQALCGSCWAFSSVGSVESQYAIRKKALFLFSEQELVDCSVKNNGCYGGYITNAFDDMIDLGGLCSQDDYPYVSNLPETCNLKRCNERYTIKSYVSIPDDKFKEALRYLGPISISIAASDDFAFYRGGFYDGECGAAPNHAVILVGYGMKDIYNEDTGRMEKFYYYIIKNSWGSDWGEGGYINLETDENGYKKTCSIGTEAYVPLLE
Outline: as §1

Chain of Cathepsin S (P25774 115-331): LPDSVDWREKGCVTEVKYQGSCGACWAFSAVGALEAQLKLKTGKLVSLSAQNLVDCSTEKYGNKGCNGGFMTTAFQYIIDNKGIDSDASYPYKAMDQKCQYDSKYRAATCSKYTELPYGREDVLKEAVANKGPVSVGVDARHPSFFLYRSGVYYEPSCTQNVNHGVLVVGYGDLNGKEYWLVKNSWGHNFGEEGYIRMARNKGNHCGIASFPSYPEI

Row | Compound | IC50 [1] | IC50 ([2]; hydrochloride) | IC50 [3] | IC50 ([2]; Plasmodium falciparum) | IC50 [4] | IC50 [5]
1 | CN1CCN(Cc2ccc(C(=O)NN(c3nc(C#N)ncc3Br)C3CCCC3)cc2)CC1 [Example 1B, N′-(5-bromo-2-cyano-4-pyrimidinyl)-N′-cyclopentyl-4-[(4-methyl-1-piperazinyl)methyl]benzohydrazide hydrochloride] | < 200 nM | 2.5 to 15 nM | < 1.5 nM |  |  | 
2 | CN1CCN(Cc2ccc(C(=O)NN(c3nc(C#N)ncc3Br)C3CCCCC3)cc2)CC1 [Example 16, N′-(5-bromo-2-cyano-4-pyrimidinyl)-N′-cyclohexyl-4-[(4-methyl-1-piperazinyl)methyl]benzohydrazide trifluoroacetate] | < 1000 nM |  | < 1.5 nM | 15 to 150 nM | < 1 nM | 2.5 to 15 nM
3 | CN1CCN(Cc2ccc(-c3cncc(C(=O)NN(c4nc(C#N)ncc4Br)C4CCCC4)c3)cc2)CC1 [Example 45, N′-(5-bromo-2-cyano-4-pyrimidinyl)-N′-cyclopentyl-5-{4-[(4-methyl-1-piperazinyl)methyl]phenyl}-3-pyridinecarbohydrazide trifluoroacetate] | < 200 nM |  | < 1.5 nM | 2.5 to 15 nM | < 1 nM | 2.5 to 15 nM
4 | CCCN1CCN(c2ccc(C(=O)NN(c3nc(C#N)ncc3Br)C3CCCCC3)cc2)CC1 [Example 80, N′-(5-bromo-2-cyano-4-pyrimidinyl)-N′-cyclohexyl-4-(4-propyl-1-piperazinyl)benzohydrazide trifluoroacetate] | < 200 nM |  | < 1.5 nM | 150 to 250 nM | < 1 nM | 15 to 150 nM
5 | CC(C)N(CCN(C(=O)OC(C)(C)C)C(C)C)Cc1ccc(C(=O)NN(c2nc(C#N)ncc2Cl)C2CCCC2)cc1 [Example 85, 1,1-dimethylethyl{2-[[(4-{[2-(5-chloro-2-cyano-4-pyrimidinyl)-2-cyclopentylhydrazino]carbonyl}phenyl)methyl](1-methylethyl)amino]ethyl}(1-methylethyl)carbamate trifluoroacetate] | < 200 nM |  |  | 150 to 250 nM | < 1 nM | 2.5 to 15 nM
